Results on 13 molecules are retold here after ChEMBL document CHEMBL3045200, “Design, synthesis of some 2,6,9-trisubstituted purinyl thioureido derivatives and evaluation of antimicrobial activity” (2012).

What all share (type): functional
For one assay, the system named is Bacillus subtilis. Nature of the assay: Antibacterial activity against Bacillus subtilis after 24 hr by broth serial microdilution method. On the technique in general: In broth dilution the organism is exposed to a series of concentrations in liquid medium.
For a further assay, the system named is Salmonella typhi. Kind of assay: Antibacterial activity against Salmonella enterica subsp. enterica serovar Typhi after 24 hr by broth serial microdilution method.
In another assay the test system is Aspergillus niger. Kind of assay: Antifungal activity against Aspergillus niger by broth serial microdilution method.
A further assay has as its system Staphylococcus aureus. Nature of the assay: Antibacterial activity against Staphylococcus aureus after 24 hr by broth serial microdilution method.
A further assay has as its system Klebsiella pneumoniae. Nature of the assay: Antibacterial activity against Klebsiella pneumoniae after 24 hr by broth serial microdilution method.

In brackets after ≈: the same amount, converted by molar mass.

With `Nc1nc(NCC(=O)NC(=S)Nc2nc3ccccc3s2)c2ncn(S(=O)(=O)c3ccccc3)c2n1`, the MIC (commonly the least concentration at which growth counts as inhibited) stood at 1290 µM (≈ 696 µg/mL) with Bacillus subtilis; 560 µM (≈ 302 µg/mL) in the assay with Salmonella typhi; 550 µM (≈ 297 µg/mL) with Aspergillus niger; 560 µM (≈ 302 µg/mL) against Staphylococcus aureus; 550 µM (≈ 297 µg/mL) against Klebsiella pneumoniae.

For `Nc1nc(NCC(=O)NC(=S)Nc2nc3c(Cl)cccc3s2)c2ncn(S(=O)(=O)c3ccccc3)c2n1`, the MIC in the assay on Bacillus subtilis was found to be 350 µM (≈ 201 µg/mL); in the assay with Salmonella typhi, 350 µM (≈ 201 µg/mL); against Aspergillus niger, 350 µM (≈ 201 µg/mL); against Staphylococcus aureus it was 350 µM (≈ 201 µg/mL); with Klebsiella pneumoniae, 170 µM (≈ 97.6 µg/mL).

`Nc1nc(NCC(=O)NC(=S)Nc2nc3cc([N+](=O)[O-])ccc3s2)c2ncn(S(=O)(=O)c3ccccc3)c2n1`: the MIC in the assay on Bacillus subtilis, against Salmonella typhi, against Aspergillus niger, in the assay with Staphylococcus aureus and with Klebsiella pneumoniae was 510 µM (≈ 298 µg/mL) throughout.

For `Nc1nc(NCC(=O)NC(=S)Nc2nc3c([N+](=O)[O-])cccc3s2)c2ncn(S(=O)(=O)c3ccccc3)c2n1`, the MIC in the assay with Bacillus subtilis, with Salmonella typhi, with Aspergillus niger, with Staphylococcus aureus and with Klebsiella pneumoniae was 510 µM (≈ 298 µg/mL) throughout.

As for `Nc1nc(NCC(=O)NC(=S)Nc2nc3ccc(F)cc3s2)c2ncn(S(=O)(=O)c3ccccc3)c2n1`, the MIC with Bacillus subtilis worked out at 360 µM (≈ 201 µg/mL); in the assay with Salmonella typhi, 360 µM (≈ 201 µg/mL); against Aspergillus niger, 360 µM (≈ 201 µg/mL); against Staphylococcus aureus, 530 µM (≈ 296 µg/mL); with Klebsiella pneumoniae, 180 µM (≈ 100 µg/mL).

In the case of `COc1ccc2nc(NC(=S)NC(=O)CNc3nc(N)nc4c3ncn4S(=O)(=O)c3ccccc3)sc2c1`, the minimum inhibitory concentration (MIC) with Bacillus subtilis turned out to be 180 µM (≈ 103 µg/mL); against Salmonella typhi, 540 µM (≈ 308 µg/mL); against Aspergillus niger, 180 µM (≈ 103 µg/mL); with Staphylococcus aureus, 350 µM (≈ 199 µg/mL); against Klebsiella pneumoniae, 350 µM (≈ 199 µg/mL).

In the case of `Nc1nc(NCC(=O)NC(=S)Nc2nc3ccc(Cl)cc3s2)c2ncn(S(=O)(=O)c3ccccc3)c2n1`, the MIC against Bacillus subtilis was determined as 350 µM (≈ 201 µg/mL); in the assay with Salmonella typhi it was 530 µM (≈ 304 µg/mL); against Aspergillus niger it was 350 µM (≈ 201 µg/mL); in the assay on Staphylococcus aureus, 520 µM (≈ 299 µg/mL); against Klebsiella pneumoniae, 350 µM (≈ 201 µg/mL).

Turning to `Cc1ccc2nc(NC(=S)NC(=O)CNc3nc(N)nc4c3ncn4S(=O)(=O)c3ccccc3)sc2c1`, the MIC with Bacillus subtilis amounted to 540 µM (≈ 299 µg/mL); against Salmonella typhi it was 530 µM (≈ 293 µg/mL); against Aspergillus niger, 540 µM (≈ 299 µg/mL); with Staphylococcus aureus, 540 µM (≈ 299 µg/mL); against Klebsiella pneumoniae it was 540 µM (≈ 299 µg/mL).

As to `Nc1nc(NCC(=O)NC(=S)Nc2nc3ccc([N+](=O)[O-])cc3s2)c2ncn(S(=O)(=O)c3ccccc3)c2n1`, the MIC against Bacillus subtilis, in the assay on Salmonella typhi, with Aspergillus niger, against Staphylococcus aureus and in the assay with Klebsiella pneumoniae was 510 µM (≈ 298 µg/mL) each time.

In the case of `COc1ccc2sc(NC(=S)NC(=O)CNc3nc(N)nc4c3ncn4S(=O)(=O)c3ccccc3)nc2c1`, the MIC against Bacillus subtilis is 350 µM (≈ 199 µg/mL); against Salmonella typhi it was 350 µM (≈ 199 µg/mL); against Aspergillus niger it was 350 µM (≈ 199 µg/mL); with Staphylococcus aureus it was 530 µM (≈ 302 µg/mL); against Klebsiella pneumoniae, 530 µM (≈ 302 µg/mL).

`CC1(C)S[C@@H]2[C@H](NC(=O)[C@H](N)c3ccccc3)C(=O)N2[C@H]1C(=O)O` [AMPICILLIN]: the MIC is 270 µM (≈ 94.3 µg/mL) with Bacillus subtilis, 200 µM (≈ 69.9 µg/mL) with Salmonella typhi, 130 µM (≈ 45.4 µg/mL) against Staphylococcus aureus and 130 µM (≈ 45.4 µg/mL) in the assay on Klebsiella pneumoniae.

In the case of `O=C(O)c1cn(C2CC2)c2cc(N3CCNCC3)c(F)cc2c1=O` [CIPROFLOXACIN], the MIC in the assay with Bacillus subtilis was 250 µM (≈ 82.8 µg/mL); against Salmonella typhi it was 190 µM (≈ 63 µg/mL); in the assay with Staphylococcus aureus it was 190 µM (≈ 63 µg/mL); against Klebsiella pneumoniae, 120 µM (≈ 39.8 µg/mL).

On to `OC(Cn1cncn1)(Cn1cncn1)c1ccc(F)cc1F` [FLUCONAZOLE], for which, in the assay with Aspergillus niger, the MIC amounted to 350 µM (≈ 107 µg/mL).
